Assay results: paper PMC12629513 (Nature, 2024)
Like-named read-outs stand apart in the source and are kept apart here.

How the values were obtained:
[1] = target: TX001-H5N1 wild-type neuraminidase (NA) (Influenza A virus, UniProt D0G890); type: biochemical, A/dairy cattle/Texas/24–008749-001/2024 (H5N1)
[2] = system: wild-type TX001-H5N1; details: mouse
[3] = system: VN1203-H5N1; experiment: microbe, parasite or virus in culture; type: cell-based, A/Vietnam/1203/2004 (H5N1); details: read-out: IC50 of polymerase inhibitor
[4] = system: TX001-H5N1 wild-type; type: cell-based, A/dairy cattle/Texas/24–008749-001/2024 (H5N1)
[5] = target: VN1203-H5N1 neuraminidase (NA) (Influenza A virus, UniProt Q6DPL2); experiment: biochemical; parameters: species or system A/Vietnam/1203/2004 (H5N1)
[6] = read-out: IC50 of neuraminidase inhibitors

`CC(=O)N[C@H]1[C@H]([C@H](O)[C@H](O)CO)OC(C(=O)O)=C[C@@H]1N=C(N)N` [Zanamivir] was tested, and the “Antiviral sensitivity to NA inhibitor in vitro (interpretation)” value [1] was “sensitive”, the “Effect on body weight loss and death” value ([2]; in vivo) was “delayed body weight loss and death” and the “Effect on virus titres in lung, nasal turbinate and brain” value ([2]; in vivo) was “significantly reduced virus titres in lung, nasal turbinate and brain”. The Protection against lethality ([2]; in vivo) was “did not protect against lethality”.
In the case of `NC(=O)c1nc(F)c[nH]c1=O` [Favipiravir], the “Effectiveness in vivo (body weight, survival, virus titres)” value ([2]; po) is reported as “highly effective”, the IC50 ([3]; Influenza A virus, H5N1, MDCK, 48 h) is reported as 1.65 ± 0.15 µg/mL and the “Effectiveness of polymerase inhibitor in vitro” value [4] is reported as “highly effective”.
For `COC(=O)OCOc1c2n(ccc1=O)N([C@@H]1c3ccccc3SCc3c1ccc(F)c3F)[C@@H]1COCCN1C2=O` [baloxavir marboxil], the “Effectiveness in vivo (body weight, survival, virus titres)” value ([2]; po) was “highly effective” and the “Effectiveness of polymerase inhibitor in vitro” value [4] was “highly effective”.
For `CCC(CC)[C@H](NC(C)=O)[C@@H]1[C@H](O)[C@@H](C(=O)O)C[C@H]1N=C(N)N` [Peramivir], the IC50 [5, 6] was 240 ± 30 pM and the IC50 [1, 6] was 195 ± 15 pM.
`CCOC(=O)C1=C[C@@H](OC(CC)CC)[C@H](NC(C)=O)[C@@H](N)C1` [oseltamivir phosphate] was tested, and the “Protection against body weight loss, viral replication in tissues, or survival” value ([2]; in vivo, po) was “Minimal protection”.
`O=C1c2c(O)c(=O)ccn2N([C@@H]2c3ccccc3SCc3c2ccc(F)c3F)[C@@H]2COCCN12` [Baloxavir acid] gave an IC50 [3] of 1250 ± 750 pM and an IC50 ([4]; read-out: IC50 of polymerase inhibitor) of 610 ± 120 pM.
Molecule `CO[C@@H]([C@@H]1OC(C(=O)O)=C[C@H](NC(=N)N)[C@H]1NC(C)=O)[C@H](O)CO` [Laninamivir] has an IC50 [5] of 410 ± 30 pM.
